Results from publication PMC11284788, “NN1213 – A Potent, Long-Acting, and Selective Analog of Human Amylin” (Journal of Medicinal Chemistry, 2024).

What was measured:
cAMY1R [1] = assay: Whole-cell competition binding, cAMY1R; conditions: IC50 for the CTR divided by that of the AMYR, canine receptors
cAMY3R [2] = assay: Whole-cell competition binding, cAMY3R; conditions: IC50 for the CTR divided by that of the AMYR, canine receptors
[3] = cited from earlier work
From the text: The major chemical degradation products of pramlintide have been identified to include deamidation and isomerization of asparagine residues in positions 3, 21, and 22 and to a lesser degree in positions 14 and 35.[22] Reduction of these deamidation reactions in pramlintide has been obtained by acidic formulation.[23]

cCTR = assay: Species-specific cAMP assay, cCTR; conditions: cAMP HTRF, transiently transfected BHK cells, 30 min room temperature, five experiments
cAMY1R [4] = assay: Species-specific cAMP assay, cAMY1R
cAMY3R [5] = assay: Species-specific cAMP assay, cAMY3R
mCTR = target: T1, mCTR (Mus musculus, UniProt Q60755); assay: Mouse receptor cAMP HTRF assay (BacMam, HeLa), mCTR
T1 sequence (Q60755 42-496 isoform Q60755-2 limits assumed): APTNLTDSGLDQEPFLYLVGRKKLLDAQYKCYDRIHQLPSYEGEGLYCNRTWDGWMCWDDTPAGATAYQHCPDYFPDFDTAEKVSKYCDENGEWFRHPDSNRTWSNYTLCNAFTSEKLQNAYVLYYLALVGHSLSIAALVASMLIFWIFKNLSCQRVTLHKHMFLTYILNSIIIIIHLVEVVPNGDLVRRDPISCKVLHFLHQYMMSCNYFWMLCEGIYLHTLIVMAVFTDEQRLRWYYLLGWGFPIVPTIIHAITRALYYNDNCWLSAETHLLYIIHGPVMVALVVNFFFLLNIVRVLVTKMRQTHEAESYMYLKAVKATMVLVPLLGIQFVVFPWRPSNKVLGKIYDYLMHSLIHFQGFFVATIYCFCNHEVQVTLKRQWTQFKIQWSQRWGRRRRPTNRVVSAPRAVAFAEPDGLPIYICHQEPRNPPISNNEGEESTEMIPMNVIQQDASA

mAMY3R = target: T2, mAMY3R (Mus musculus, UniProt Q60755+Q9WUP1); assay: Mouse receptor cAMP HTRF assay (BacMam, HeLa), mAMY3R; conditions: ratio of cAMP EC50 values, mouse receptors
T2 sequence (Q60755 42-496 isoform Q60755-2 limits assumed): T1 sequence (Q60755 42-496 isoform Q60755-2 limits assumed)
T2 sequence (Q9WUP1 24-147 partner limits assumed): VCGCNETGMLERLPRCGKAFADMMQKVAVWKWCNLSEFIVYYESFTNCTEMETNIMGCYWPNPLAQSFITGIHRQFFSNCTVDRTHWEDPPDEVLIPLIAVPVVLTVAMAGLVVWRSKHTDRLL

[6] = cAMP HTRF, transiently transfected BHK cells, 30 min room temperature, five experiments
[7] = ratio of cAMP EC50 values, canine receptors

- cCTR pEC50 (cCTR): 10.90
- cAMY1R pEC50 (cAMY1R [4]; [6]): 10.77
- cAMY3R pEC50 (cAMY3R [5]; [6]): 10.88
- EC50 (mCTR): 3.09 nM
- Ratio CTR/AMY3R (mouse, functional) (mAMY3R): 8
SMILES: CC[C@H](C)[C@H](NC(=O)[C@@H]1CCCN1C(=O)CNC(=O)[C@H](Cc1ccccc1)NC(=O)[C@H](CC(N)=O)NC(=O)[C@H](CC(N)=O)NC(=O)[C@H](CO)NC(=O)[C@H](CO)NC(=O)[C@H](Cc1c[nH]cn1)NC(=O)[C@@H](NC(=O)[C@H](CC(C)C)NC(=O)[C@H](Cc1ccccc1)NC(=O)[C@H](CC(N)=O)NC(=O)[C@H](C)NC(=O)[C@H](CC(C)C)NC(=O)[C@H](CCCNC(=N)N)NC(=O)[C@H](CCC(N)=O)NC(=O)[C@@H](NC(=O)[C@H](C)NC(=O)[C@@H]1CSSC[C@H](NC(=O)[C@@H](N)CCCCN)C(=O)N[C@@H](CC(N)=O)C(=O)N[C@@H]([C@@H](C)O)C(=O)N[C@@H](C)C(=O)N[C@@H]([C@@H](C)O)C(=O)N1)[C@@H](C)O)C(C)C)C(=O)N[C@@H](CC(C)C)C(=O)N1CCC[C@H]1C(=O)N1CCC[C@H]1C(=O)N[C@H](C(=O)N[C@@H](CC(N)=O)C(=O)N[C@H](C(=O)NCC(=O)N[C@@H](CO)C(=O)N[C@@H](CC(N)=O)C(=O)N[C@H](C(=O)N[C@@H](Cc1ccc(O)cc1)C(N)=O)[C@@H](C)O)C(C)C)[C@@H](C)O [pramlintide, reference compound]
- Ratio CTR/AMY1R (canine, binding) (cAMY1R [1]): 67
- Ratio CTR/AMY3R (canine, binding) (cAMY3R [2]): 112
- half-life in plasma [3]: 30 to 50 min
- Ratio CTR/AMY1R (canine, functional) (cAMY1R [4]; [7]): 1
- Ratio CTR/AMY3R (canine, functional) (cAMY3R [5]; [7]): 1
